Laboratory results reported in PMC5232348, “Molecular and Functional Characterization of Three Odorant-Binding Protein from Periplaneta americana” (PLoS ONE, 2017).
Structures can show the parent of a compound that is named as a salt. Where two headings read alike, the source gives them in different places.

Key:
[1] = target: PameOBP1 (Periplaneta americana, UniProt B6E9U7); assay: Competitive fluorescence binding assay (1-NPN displacement), recombinant PameOBP1; conditions: 2 μM 1-NPN as fluorescent reporter, competitor 0.25–2.5 μM or 2–40 μM; for IC50: read-out: PameOBP1 IC50
Excerpt: (§1) The PameOBPs were expressed by using Escherichia coli expression system. To generate properly folded protein, the signal peptide predicted by SignalIP 4.1 [18] was removed. The two PameOBPs were amplified by gene special primers (S1 Table) with the cDNA as the template. The purified PCR products were ligated into expression vector pGEX-4T-1 using In-Fusion® HD Cloning Kit (Clontech, Mountain View, CA) according to the manufacturer’s instructions. The recombinant plasmid was transformed into E. coli BL21 (DE3) cells, and then expression and purification was performed according to a previously reported protocol. Recombinant proteins in the supernatant were purified by an affinity chromatography column GSTrap FF (GE Healthcare, Piscataway, NJ, USA). The GST tags were cleaved from recombinant proteins using 400 μL of thrombin (1U/μL) while loaded on GSTrap FF column at 25°C for 10 h and allowed 12 h. After that, the recombinant proteins were eluted with PBS buffer. Finally, the eluted proteins were desalted using HiTrap Desalting (GE Healthcare), lyophilized, and stored at −80°C until use.
(§2) Emission fluorescence spectra were measured on a Hitachi F-4500 fluorescence spectrophotometer following our previous studies. Firstly, dissociation constants of the PameOBPs for N-phenyl-1-naphtylamine (1-NPN) were calculated to determine the suitability of 1-NPN as a fluorescence reporter. […] The binding data were analyzed following our previous studies.

[2] = target: PameOBP2 (Periplaneta americana, UniProt B6E9U8); assay: Competitive fluorescence binding assay (1-NPN displacement), recombinant PameOBP2; conditions: 2 μM 1-NPN as fluorescent reporter, competitor 0.25–2.5 μM or 2–40 μM; for IC50: read-out: PameOBP2 IC50
Excerpt: as §1, §2

[3] = target: PameOBP3 (Periplaneta americana, UniProt B6E9U9); assay: Competitive fluorescence binding assay (1-NPN displacement), recombinant PameOBP3
Excerpt: as §1, §2

[4] = 2 μM 1-NPN as fluorescent reporter, competitor 0.25–2.5 μM or 2–40 μM, read-out: PameOBP3 Ki

Chain of PameOBP3 (B6E9U9 entry or part of it): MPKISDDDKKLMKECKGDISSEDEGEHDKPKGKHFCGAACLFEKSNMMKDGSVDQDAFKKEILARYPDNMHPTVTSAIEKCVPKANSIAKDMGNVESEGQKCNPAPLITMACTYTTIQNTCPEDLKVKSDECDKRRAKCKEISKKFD
Chain of PameOBP2 (B6E9U8 entry or part of it): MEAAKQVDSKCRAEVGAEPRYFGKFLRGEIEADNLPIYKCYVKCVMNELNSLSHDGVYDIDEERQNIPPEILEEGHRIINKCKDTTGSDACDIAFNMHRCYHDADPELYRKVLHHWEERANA
Chain of PameOBP1 (B6E9U7 entry or part of it): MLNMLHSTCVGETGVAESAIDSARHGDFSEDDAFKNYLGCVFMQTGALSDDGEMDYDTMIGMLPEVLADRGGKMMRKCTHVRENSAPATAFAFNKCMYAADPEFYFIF

Molecule	Ki ([1]; PameOBP1 Ki)	Ki ([2]; PameOBP2 Ki)	Ki [3]	Ki ([1]; read-out: PameOBP1 Ki)	Ki ([2]; read-out: PameOBP2 Ki)	Ki [3, 4]	also measured
CCCCC(C)=O [2-hexanone]	> 40 µM	> 40 µM	> 40 µM	–	–	–	–
CC(C)=CCC/C(C)=C/CO [geraniol]	> 40 µM	> 40 µM	> 40 µM	–	–	–	–
O=CCc1ccccc1 [phenylacetaldehyde]	> 40 µM	> 40 µM	> 40 µM	–	–	–	–
c1ccc2ccccc2c1 [naphthalene]	> 40 µM	> 40 µM	> 40 µM	–	–	–	–
CCCCCCCCCCCC(C)=O [2-Tridecanone]	–	–	–	1.85 ± 0.17 µM	1.23 ± 0.08 µM	–	IC50 [1]: 2.02 ± 0.16 µM; IC50 [2]: 1.52 ± 0.16 µM
CCC/C=C\CO [cis-2-hexen-1-ol]	> 40 µM	> 40 µM	> 40 µM	–	–	–	–
CC/C=C\CCO [Cis-3-hexenol]	> 40 µM	> 40 µM	> 40 µM	–	–	–	–
CCCCCC(C)=O [2-heptanone]	–	–	–	> 40 µM	> 40 µM	> 40 µM	–
CCCCOC=O [butyl formate]	–	–	–	> 40 µM	> 40 µM	> 40 µM	–
CC(=O)OCCC(C)C [isoamyl acetate]	–	–	–	> 40 µM	> 40 µM	> 40 µM	–
CCCC(=O)CC [3-hexanone]	–	–	–	> 40 µM	> 40 µM	> 40 µM	–
CC12CCC(CC1)C(C)(C)O2 [eucalyptol]	–	–	–	> 40 µM	> 40 µM	> 40 µM	–
CC(=O)CCC=C(C)C [6-methyl-5-hepten-2-one]	> 40 µM	> 40 µM	> 40 µM	–	–	–	–
CCCCOC(C)=O [butyl acetate]	> 40 µM	> 40 µM	> 40 µM	–	–	–	–
CC(=O)CC/C=C(\C)CCC=C(C)C [Geranylacetone]	–	–	–	> 40 µM	6.97 ± 0.72 µM	–	IC50 [1]: > 40 µM; IC50 [2]: 8.62 ± 0.68 µM
C=C1C2CCC(C2)C1(C)C (stereo not drawn) [camphene]	–	–	–	> 40 µM	> 40 µM	> 40 µM	–

Molecule	Ki ([1]; PameOBP1 Ki)	Ki ([2]; PameOBP2 Ki)	Ki [3]	Ki ([1]; read-out: PameOBP1 Ki)	Ki ([2]; read-out: PameOBP2 Ki)	Ki [3, 4]	also measured
CCC/C=C/COC(C)=O [trans-2-hexenyl acetate]	–	–	–	> 40 µM	> 40 µM	> 40 µM	–
CCCCCCCCCCCCCC(C)=O [2-pentadecanone]	–	–	–	> 40 µM	> 40 µM	> 40 µM	–
COC(=O)c1ccccc1O [methyl salicylate]	> 40 µM	> 40 µM	> 40 µM	–	–	–	–
CCCCCCCCCCCC [dodecane]	–	–	–	> 40 µM	> 40 µM	> 40 µM	–
CC/C=C\CC=O [cis-3-hexenal]	–	–	–	> 40 µM	> 40 µM	> 40 µM	–
CC(C)=CCC/C(C)=C/CC/C(C)=C/CO [Farnesol]	–	–	–	0.92 ± 0.06 µM	0.53 ± 0.06 µM	–	IC50 [1]: 1.01 ± 0.09 µM; IC50 [2]: 0.65 ± 0.07 µM
CCCCCCCCCCCCCC [Tetradecane]	–	–	–	–	0.96 ± 0.1 µM	–	IC50 [1]: > 40 µM; IC50 [2]: 1.19 ± 0.09 µM
C=CC(C)(O)CCC=C(C)C (stereo not drawn) [linalool]	> 40 µM	> 40 µM	> 40 µM	–	–	–	–
CCCCCCCCCCC=O [undecanal]	–	–	–	> 40 µM	> 40 µM	> 40 µM	–
CC1=CC[C@H](C(C)C)C=C1 [alpha-phellandrene]	> 40 µM	> 40 µM	> 40 µM	–	–	–	–
OCc1ccccc1 [benzyl alcohol]	> 40 µM	> 40 µM	> 40 µM	–	–	–	–
CCC/C=C/COC(=O)CCC [trans-2-hexenyl butyrate]	–	–	–	> 40 µM	> 40 µM	> 40 µM	–
CC(C)c1ccccc1 [cumene]	> 40 µM	> 40 µM	> 40 µM	–	–	–	–
CC(=O)OCc1ccccc1 [benzyl acetate]	–	–	–	> 40 µM	> 40 µM	> 40 µM	–
O=Cc1ccccc1 [benzaldehyde]	> 40 µM	> 40 µM	> 40 µM	–	–	–	–
Farnesene	–	–	–	1.04 ± 0.1 µM	0.52 ± 0.03 µM	–	Ki ([1]; listed as farnesene, read-out: PameOBP1 Ki): < 2 µM; IC50 [1]: 1.14 ± 0.12 µM; Ki ([2]; listed as farnesene, read-out: PameOBP2 Ki): < 2 µM; IC50 [2]: 0.64 ± 0.08 µM
